Experimental data as given in US8188003B2, “Method of inducing virus tolerance of plants” (BASF Aktiengesellschaft, priority 2005, dated 2012).

Columns and labels:
TMV [1] = assay: Use example 3: leaf halves infiltrated, TMV infection 1 day after treatment, lesion area versus control; format: in vivo, tobacco plants (cultivar Xanthi-nc); conditions: 1 mM in 1% aqueous ethanol, evaluated after further 5 days
Experimental: (§1) Leaf halves of approx. 5-weeks-old tobacco plants (cultivar Xanthi-nc) were infiltrated with 1 mM active ingredient solution in 1% aqueous ethanol; the leaf halves of the controls were infiltrated with 1% aqueous ethanol.
Infection with TMV was carried our 1 day after treatment; the plants were evaluated after further 5 days. The data shown are the averages of the leaf areas which had died owing to viral attack (lesions) at the infection site on leaf halves treated with active ingredient or untreated leaf halves (controls):
(§2) Area of the lesions in comparison with the control: […]

TMV [2] = assay: Use example 5: spraying the leaves with active ingredient solutions, TMV infection 5 days after treatment, lesion area versus control; format: in vivo, tobacco plants (cultivar Xanthi-nc); conditions: 2 mM with universal wetter 1:1 (w/w), sprayed, evaluated after further 4 days
Experimental: In each case 2 mM active ingredient were dissolved in water with the aid of a universal wetter in the ratio 1:1 (w/w) and sprayed onto the leaf halves of 5-week-old tobacco plants (cultivar Xanthi-nc) (leaf halves of the controls were sprayed with dissolved wetter only).
Infection with TMV was carried out 5 days after the treatment, and the plants were evaluated after further 4 days. The data shown are the averages of the leaf areas which had died owing to viral attack (lesions) at the infection site on leaf halves treated with active ingredient or untreated leaf halves (controls):
as §2

TMV [3] = assay: Use example 4: leaf halves infiltrated, TMV infection 2 days after treatment, lesion area versus control; format: in vivo, tobacco plants (cultivar Xanthi-nc); conditions: 1 mM in 1% aqueous ethanol, evaluated after further 5 days
Experimental: as §1
The procedure of use example 3 was followed, but infection was carried out 2 days after the treatment and the plants were evaluated after further 5 days.
as §2

[4] = test system: tobacco mosaic virus (TMV, strain U1); assay: Use example 1: active ingredient solution injected into tobacco leaves, TMV infection, lesion diameter; format: in vivo, tobacco plants (Nicotinia tabacum cv. Xanthi-nc); conditions: injected into leaf, infection 1 day after pretreatment, after 7 days, water control 3.55 mm
Experimental: (§3) For the experiments, tobacco plants (Nicotinia tabacum cv. Xanthi-nc) were grown at 25° C., an atmospheric humidity of 59% and a daily photoperiod of 16 hours (150-200 μM quanta/s^−1/m^−2) for 4 to 5 weeks in potting compost (standard soil type ED 73). Some of the plants were fed once per week by adding a commercial house-plant fertilizer (10% total nitrogen, 9% phosphate, 7% potash) to the irrigation water at the recommended rate.
(§4) The formulated active ingredient used took the form of water-dispersible granules with an active ingredient content of 20%. The concentrations used in the experiments (0.01-10 mM) are based on the active ingredient content. To prevent distribution of the active ingredient in the entire plant, the stalks of plants where a leaf had been infiltrated were removed above the treated leaf, using a sterile surgical blade.
(§5) After the application of the active ingredient, and also after infection with the virus at a later time, the plants were left to stand in the growth cabinet.
(§6) The various pretreated tobacco plants were infected with tobacco mosaic virus (TMV, strain U1). […] Five to 7 days post-infection, the diameter of 10 to 20 lesions on the leaves was determined. […]
After 7 days, the diameter of the lesions on the leaves caused by TMV was determined in millimeters [mm].

TMV [5] = assay: Use example 6: plant growth and tolerance to viral infection of TMV-inoculated tomato plants after spray treatment; format: in vivo, Tomato plants (cultivar Gaucho)
Experimental: The experiments were performed in greenhouse of under appropriate growing conditions for tomatoes. Tomato plants (cultivar Gaucho) were grown in pots until development of the first two true leaves. Then the plantlets were sprayed with different concentrations of formulated Pyraclostrobin (compound I-5; commercial fungicide Cabrio Top® of BASF Aktiengesellschaft). These treatments were done either 120 hours before or following inoculation of the plantlets with TMV, representing protective and curative situation. The treatments were run with 5 replicates, each containing 3 plantlets. 30 days after last treatment the plants were analyzed for visual plant growth (altitude and dry mass) and chlorophyll content (photometric measurement of extracts). Also the virus titre was determined (ELISA).
Same letters indicate non significant differences (Tukey; P≦0.05).

[6] = test system: tobacco mosaic virus (TMV, strain U1); assay: Use example 2: one leaf half infiltrated with active ingredient solution, TMV infection, lesion diameter; format: in vivo, tobacco plants (Nicotinia tabacum cv. Xanthi-nc); conditions: after 5 days
Experimental: as §3, §4, §5, §6
After 5 days, the diameter of the lesions on the leaves caused by TMV was determined in millimeters [mm].

| Compound | Area of the lesions in comparison with the control, Area in percent (TMV [1]) [%] | Area of the lesions in comparison with the control, Area in percent (TMV [2]) [%] | Area of the lesions in comparison with the control, Area In percent (TMV [3]) [%] | diameter of the lesions on the leaves caused by TMV (average) ([4]; 1 mM) [mm] | diameter of the lesions on the leaves caused by TMV (average) ([4]; 2.5 mM) [mm] | effect compared with untreated plants (TMV [5]; Curative treatment) | effect on growth inhibition and loss of leaf chlorophyll caused by TMV infection (TMV [5]; protective treatment) | diameter of the lesions on the leaves caused by TMV (average), treated leaf zones ([6]; 0.5 mM, water control plants 3.2 mm) [mm] | diameter of the lesions on the leaves caused by TMV (average), treated leaf zones ([6]; 1 mM, water control plants 3.35 mm) [mm] |
| --- | --- | --- | --- | --- | --- | --- | --- | --- | --- |
| CNC(=O)/C(=N/OC)c1ccccc1CO/N=C(C)/C(=N/OC)C(/C)=N/OC [Compound V-16, orysastrobin] | 63.8 | – | – | – | – | – | – | – | – |
| CNC(=O)/C(=N/OC)c1ccccc1COc1cc(C)ccc1C [II-3, dimoxystrobin] | 68.1 | 49.6 | 62.7 | – | – | – | – | – | – |
| CO/C=C(/C(=O)OC)c1ccccc1Oc1cc(Oc2ccccc2C#N)ncn1 [VII-1, azoxystrobin] | 62.1 | 68.3 | 70.4 | – | – | – | – | – | – |
| pyraclostrobin [Compound I-5] | 53.0 | – | – | 2.35 | 1.8 | no advantage compared with untreated plants | can prevent growth inhibition and loss of leaf chlorophyll caused by TMV infection | 2.75 | 2.85 |
